For experiment [1], the system named is CD37. Put plainly: Binding of TRU-016 to CD37 expressing Daudi cells. Details: species or system human. The following applies: CS 25-800 μM in culture. The method, then: The cells are then incubated with a FITC-conjugated goat anti-human IgG Fc specific antibody (Caltag H 10501). This antibody will bind to the Fc region of the human IgG chain of TRU-016 bound to the cells. The antibody is diluted 1:50 in FACS buffer and 100 μL is added to each well. The plate is incubated at 4° C. in the dark for 45 minutes. Any unbound FITC-labeled antibody is removed by adding 100 μL of FACS buffer to each well, centrifuging at 250×g for 3 minutes at 15° C. followed by removal of supernatant. This is followed by a second wash with 200 μL/well FACS buffer. The cells are resuspended with 200 μL/well 2% paraformaldehyde and stored at 4° C. overnight. Each sample's bound fluorescence is measured on a BD FACSCalibur flow cytometry system and analyzed using Cell Quest Pro software (Becton Dickinson, ver 5.2). The GeoMean fluorescence intensity for each sample is plotted relative to the TRU-016 concentration. A dose response curve is generated and fit to a 4-parameter logistic (4-PL) curve using the SoftMax Pro software (Molecular Devices, ver 5.0.1). Titrations of TRU-016 are utilized to create a dose response curve of the untreated control and CS treated samples for comparison.

Experiment [2] has as its system BJAB B cells. Kind of experiment: ADCC activity, 51Cr release, PBMC effector cells. The experiment is classed as cell-based, human. The following applies: for ADCC activity (% specific killing) of TRU-015 purified protein: 0, 2, 5, 10, 30 or 100 μg/mL castanospermine in culture media. The method, then: To determine the ADCC activity of purified TRU-016, labeled BJAB B cells were used as targets and human peripheral blood mononuclear cells (PBMC) as effector cells. BJAB B cells (10^7 cells) were labeled with 500 μCi/mL ^51Cr sodium chromate for 2 hours at 37° C. in IMDM/10% FBS. PBMCs were isolated from heparinized, human whole blood by fractionation over Lymphocyte Separation Media (LSM, ICN Biomedical) gradients. Reagent samples were added to RPMI media with 10% FBS and serial dilutions of each reagent were prepared. The ^51Cr labeled BJAB were added at 2×10^4 cells/well. The PBMCs were then added at 5×10^5 cells/well for a final ratio of 25:1 effectors (PBMC):targets (BJAB). Reactions were set up in quadruplicate wells of a 96 well plate. Reactions were allowed to proceed for 6 hours at 37° C. in 5% CO2 prior to harvesting and counting. CPM released was measured on a Packard TopCounNXT from 50 μl dried culture supernatant. Percent specific killing was calculated by subtracting (cpm [mean of quadruplicate samples] of sample—cpm spontaneous release)/(cpm maximal release-cpm spontaneous release) x100, and data were plotted as % specific killing versus TRU-016 concentration.

Experiment [3] has as its system CHO cells expressing TRU-016. Kind of experiment: Culturing CHO host cells with carbohydrate modifier: cell growth and viability. The following applies: castanospermine up to 1000 μM, all time periods up to 144 hours. Format: cell-based, Chinese hamster. The method, then: For shake flask runs, log phase host cells were seeded in shake flasks at 100,000 cells/ml with carbohydrate modifier at the concentration to be tested, and optionally with methotrexate (MTX) @ 50 nM
Cells were seeded at 3×10E6/mL in 1350 mL of Ex-Cell 302 culture media (SATC Biosciences; with added non-essential amino acids, pyrucate, L-glutamine, pen/strep, HT Supplement and insulin, all from Invitrogen) at t=0 and brought to 5 L total volume at T>=72 hours. The cells were incubated at 37° C. and 5% carbon dioxide and monitored for growth and viability daily starting at day 6-7. Supernatants were typically harvested at day 10-12 when cell viability dropped below 60%.
Na-Azide was added to 0.02%, cells were removed by centrifugation and supernatant was filter sterilized through a 0.22 uM filter. Some assays described in other examples herein were performed on the supernatants as indicated, while other assays were performed on material that underwent further protein A purification. […] Cells were incubated at 37° C. and 5% carbon dioxide and monitored daily for growth and viability. […]

Experiment [4] relates to Ramos B cells. Put plainly: CDC activity, propidium iodide flow cytometry with human serum. The experiment is classed as cell-based. The following applies: TRU-016 from CHO cells cultured with 200 μM DMJ, 10 μM kifenunsine or 200 μM castanospermine. The method, then: To determine the CDC activity of TRU-016 purified protein produced according to Example 2, Ramos B cells were suspended in Iscoves (Gibco/Invitrogen, Grand Island, N.Y.) at 5×10^5 cells/well in 75 μl. TRU-016 (75 μl) were added to the cells at twice the concentrations indicated. Binding reactions were allowed to proceed for 45 minutes prior to centrifugation and washing in serum-free Iscoves. Cells were resuspended in Iscoves with human serum (containing complement) at various concentrations. The cells were incubated 60 minutes at 37° C. Cells were washed by centrifugation and resuspended in staining media with 0.5 μg/ml propidium iodide. Samples were incubated 15 minutes at room temperature in the dark prior to analysis by flow cytometry using a FACsCalibur and CellQuest software (Becton Dickinson).

Data on two molecules can be found in US20100150948A1, “MATERIALS AND METHODS FOR IMPROVED IMMUNOGLYCOPROTEINS” (TRUBION PHARMACEUTICALS, INC., priority 2006, published 2010).

For `O[C@H]1[C@H](O)[C@@H](O)CN2CC[C@H](O)[C@H]12` [castanospermine], the “dose response binding curves of TRU-016 to CD37 expressing cells, compared with untreated TRU-016 sample” value in experiment [1] is on record as “did not alter”. Besides, the “ADCC activity (% specific killing) of TRU-016 purified protein” value in experiment [2] (0, 10, 25, 50, 100 or 200 μM castanospermine in culture media) is reported as “dose-dependent increase”. In addition, the “ADCC (% specific killing) of TRU-016 purified protein” value in experiment [2] (200 μM DMJ, 10 μM kifenunsine or 200 μM castanospermine in culture media) is “improved ADCC”. In addition, the “ADCC activity (% specific killing) of TRU-015 purified protein” value in experiment [2] (PBMC from high affinity (V/V158) CD16 donors) is listed as “dose-dependent increase”. The “ADCC activity (% specific killing) of TRU-015 purified protein” value in experiment [2] (PBMC from low affinity (F/F158) CD16 donors) is recorded as “dose-dependent increase”. Also, in experiment [3], the cell counts result is “did not affect” and the percent cell viability result was “did not affect”.
As for “TRU-016: recombinant single chain protein (SMIP) that binds CD37; G28-1 binding domain, modified hinge, human IgG1 CH2 and CH3; SEQ ID NO: 2”, the “CDC compared with protein produced by untreated CHO cells” value in experiment [4] is on record as “similar”.
